Like-named read-outs stand apart in the source and are kept apart here. Each block holds one compound with its values, some of them ahead of it. Ends that are not written are not given here. Peptide text beside a SMILES is read from it. * marks the point of attachment. PEG8 = NCCOCCOCCOCCOCCOCCOCCOCCOCCC(=O)O; Palmitoyl = CCCCCCCCCCCCCCCC(=O)*
Key:
CCK2R [1] = target: T1, CCK2R (Homo sapiens, UniProt P32239); test: Antagonist inhibition of agonist-induced CCK2R signaling (SRE-luciferase, HEK293); assay type: cell-based; parameters: expressed in transfected cells; host or cells: HEK293
T1 sequence (P32239 1-447): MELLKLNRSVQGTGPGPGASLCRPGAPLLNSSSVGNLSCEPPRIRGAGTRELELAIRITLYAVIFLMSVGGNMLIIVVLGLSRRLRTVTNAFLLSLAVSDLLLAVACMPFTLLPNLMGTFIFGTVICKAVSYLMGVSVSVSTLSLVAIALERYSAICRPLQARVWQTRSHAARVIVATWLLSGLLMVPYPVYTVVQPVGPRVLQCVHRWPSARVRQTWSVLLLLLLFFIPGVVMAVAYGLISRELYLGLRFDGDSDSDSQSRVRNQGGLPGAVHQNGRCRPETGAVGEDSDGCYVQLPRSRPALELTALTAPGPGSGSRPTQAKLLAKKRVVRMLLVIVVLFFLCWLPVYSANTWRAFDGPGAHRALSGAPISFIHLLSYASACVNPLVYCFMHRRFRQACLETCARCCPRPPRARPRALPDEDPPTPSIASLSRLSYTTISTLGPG
Procedure: Figure 6 YM022 inhibits CCK2R signaling induced by tethered CCK4-Gly, soluble CCK4-Gly, or lipidated CCK4-Gly. A) YM022 blocks tethered CCK4-Gly mediated CCK2R signaling. […] Four hours following transfection, cells were with treated with increasing concentrations of YM022 for 20 hours. […] B) YM022 blocks s-CCK4-Gly-COOH and l-CCK4-Gly-COOH mediated activation of CCK2R. HEK293 cells were transfected as indicated above. Twenty hours after transfection, cells were with treated with increasing concentrations of YM022 together with either 10 µM of l-CCK4-Gly-COOH or s-CCK4-Gly-COOH.

CCK1R = target: T2, CCK1R (Homo sapiens, UniProt P32238); test: SRE-luciferase reporter agonist assay in HEK293 cells transfected with CCK1R; details: HEK293, SRE-Luc; relative to 10 µM s-CCK8-NH2; MTL coexpressed 24 hours, peptides 4 hours
T2 sequence (P32238 1-428): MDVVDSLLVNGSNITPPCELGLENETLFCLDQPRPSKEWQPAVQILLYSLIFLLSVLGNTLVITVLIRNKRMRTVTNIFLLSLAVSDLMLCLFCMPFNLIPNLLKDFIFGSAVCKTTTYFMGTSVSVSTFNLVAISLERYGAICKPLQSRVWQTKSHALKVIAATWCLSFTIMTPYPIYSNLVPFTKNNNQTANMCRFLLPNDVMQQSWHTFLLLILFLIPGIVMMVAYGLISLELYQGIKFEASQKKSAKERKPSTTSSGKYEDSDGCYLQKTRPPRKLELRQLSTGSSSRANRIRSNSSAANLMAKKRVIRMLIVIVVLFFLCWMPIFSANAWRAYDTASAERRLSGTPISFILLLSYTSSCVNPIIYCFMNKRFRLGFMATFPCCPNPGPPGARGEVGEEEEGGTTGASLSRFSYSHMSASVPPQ
Procedure: Human embryonic kidney cells (HEK293) were maintained at 37°C in a humidified 5% CO2 atmosphere and cultured with Dulbecco’s modified Eagle’s medium (Invitrogen, Chicago, IL) containing 10% fetal bovine serum, 100 U/mL penicillin, and 100 µg/mL streptomycin. Cells were seeded into 96-well plates and grown to ∼80% confluence. […]
The CCK2 receptor was cloned as previously reported [18]; the CCK1R cDNA was PCR amplified based on a published sequence [19]. […] The nucleotide sequences of all receptor and tethered ligand coding regions were confirmed by automated DNA sequencing and analyzed using Vector NTI software (Invitrogen, Chicago, IL). The expression of membrane tethered Substance P, CCK4, and CCK4-Gly was assessed by ELISA using an antibody directed to the myc epitope tag within the MTL cDNA construct [8].
(§1) Tethered ligand induced signaling was assessed in HEK293 cells 24 hours after transfection. […] With tethered ligands, antagonists were added 4 hours after transfection; activity was assessed following an additional 20 hour incubation. Quantification of luciferase and β-galactosidase activities were performed as previously described [6]. Data were analyzed by nonlinear curve fitting using Graph Pad Prism 5.0 software. […]

CCK2R [2] = target: T1, CCK2R; test: SRE-luciferase reporter agonist assay in HEK293 cells transfected with CCK2R; details: for CCK2R mediated signaling (agonist activity, in words): HEK293, SRE-Luc, relative to 10 µM s-CCK4-NH2, MTL coexpressed 24 hours, peptides 4 hours
Procedure: (§2) Human embryonic kidney cells (HEK293) were maintained at 37°C in a humidified 5% CO2 atmosphere and cultured with Dulbecco’s modified Eagle’s medium (Invitrogen, Chicago, IL) containing 10% fetal bovine serum, 100 U/mL penicillin, and 100 µg/mL streptomycin. Cells were seeded into 96-well plates and grown to ∼80% confluence. Cells were transfected for 24 hours using polyethylenimine (Sigma, Atlanta, GA) in serum-free medium [17] with cDNAs encoding, a) tethered ligand (where noted), b) 3 ng of indicated receptor, c) 25 ng of a 5X-SRE-Luc-pest (pGL4.33), a luciferase reporter construct under the control of a serum response element (Promega, Madison, WI), and d) 10 ng of β-galactosidase to control for transfection efficiency.
The CCK2 receptor was cloned as previously reported [18]; the CCK1R cDNA was PCR amplified based on a published sequence [19]. Each receptor cDNA encoding the human sequence was subcloned into pcDNA1.1. […] The nucleotide sequences of all receptor and tethered ligand coding regions were confirmed by automated DNA sequencing and analyzed using Vector NTI software (Invitrogen, Chicago, IL). The expression of membrane tethered Substance P, CCK4, and CCK4-Gly was assessed by ELISA using an antibody directed to the myc epitope tag within the MTL cDNA construct [8].
(§3) Tethered ligand induced signaling was assessed in HEK293 cells 24 hours after transfection. For soluble and lipidated peptides, 20 hours following transfection, cells were stimulated in serum-free medium for an additional 4 hours. […] With tethered ligands, antagonists were added 4 hours after transfection; activity was assessed following an additional 20 hour incubation. Quantification of luciferase and β-galactosidase activities were performed as previously described [6]. Data were analyzed by nonlinear curve fitting using Graph Pad Prism 5.0 software.
HEK293 cells were transiently cotransfected with cDNAs encoding: the designated CCK receptor subtype, a 5X-SRE-Luc-pest reporter construct (pGL4.33), tethered ligand (as indicated) and a β-galactosidase gene to control for transfection efficiency. Tethered ligand activity was measured 24 hours following transfection. To assess activity of soluble and lipidated CCK4-Gly, cells were stimulated for an additional 4 hours with ligand. […] Data represent the mean ± SEM from 3 independent experiments, each performed in triplicate.

NK3R = target: T3, NK3R (Homo sapiens, UniProt P29371); test: SRE-luciferase reporter agonist assay in HEK293 cells transfected with NK3R; details: HEK293, SRE-Luc; relative to 1 µM s-SubP-NH2; MTL coexpressed 24 hours, peptides 4 hours
T3 sequence (P29371 1-465): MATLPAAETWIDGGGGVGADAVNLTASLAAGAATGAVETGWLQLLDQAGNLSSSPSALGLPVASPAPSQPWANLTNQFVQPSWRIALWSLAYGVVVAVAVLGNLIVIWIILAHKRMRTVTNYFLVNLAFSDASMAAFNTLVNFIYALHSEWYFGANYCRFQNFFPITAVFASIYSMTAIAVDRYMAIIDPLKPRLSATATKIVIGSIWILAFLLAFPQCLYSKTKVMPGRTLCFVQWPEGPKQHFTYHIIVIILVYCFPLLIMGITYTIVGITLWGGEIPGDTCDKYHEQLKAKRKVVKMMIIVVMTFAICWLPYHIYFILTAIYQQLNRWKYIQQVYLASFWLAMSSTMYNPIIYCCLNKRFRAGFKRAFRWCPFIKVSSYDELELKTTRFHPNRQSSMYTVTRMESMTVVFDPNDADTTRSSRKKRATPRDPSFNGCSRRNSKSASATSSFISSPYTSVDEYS
Procedure: as §2
(§4) The expression of membrane tethered Substance P, CCK4, and CCK4-Gly was assessed by ELISA using an antibody directed to the myc epitope tag within the MTL cDNA construct [8].
as §1

NK1R [3] = target: T4, NK1R (Homo sapiens, UniProt P25103)
T4 sequence (P25103 whole entry): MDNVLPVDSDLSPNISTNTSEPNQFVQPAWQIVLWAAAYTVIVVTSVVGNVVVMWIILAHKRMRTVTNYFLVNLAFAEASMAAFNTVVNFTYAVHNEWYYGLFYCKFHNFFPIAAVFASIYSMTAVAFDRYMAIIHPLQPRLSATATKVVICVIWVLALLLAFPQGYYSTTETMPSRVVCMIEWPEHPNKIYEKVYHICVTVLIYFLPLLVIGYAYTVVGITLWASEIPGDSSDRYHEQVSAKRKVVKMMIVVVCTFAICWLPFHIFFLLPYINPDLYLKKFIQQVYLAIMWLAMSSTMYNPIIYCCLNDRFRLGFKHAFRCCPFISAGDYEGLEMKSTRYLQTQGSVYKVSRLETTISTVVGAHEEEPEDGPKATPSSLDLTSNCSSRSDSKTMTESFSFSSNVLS
Procedure: as §2, §4, §3
(§5) HEK293 cells were transiently cotransfected for 24 hours with cDNAs encoding: the designated NK receptor subtype, a 5X-SRE-Luc-pest reporter construct (pGL4.33), tethered ligand (for MTL assays, left panels), and a β-galactosidase gene to control for transfection variability. For assessment of SMAL induced signaling, cells were stimulated with ligand for an additional 4 hours. […] Data represent the mean ± SEM from 3 independent experiments, each performed in triplicate.

NK2R = target: T5, NK2R (Homo sapiens, UniProt P21452); test: SRE-luciferase reporter agonist assay in HEK293 cells transfected with NK2R; details: HEK293, SRE-Luc; relative to 1 µM s-SubP-NH2; MTL coexpressed 24 hours, peptides 4 hours
T5 sequence (P21452 1-398): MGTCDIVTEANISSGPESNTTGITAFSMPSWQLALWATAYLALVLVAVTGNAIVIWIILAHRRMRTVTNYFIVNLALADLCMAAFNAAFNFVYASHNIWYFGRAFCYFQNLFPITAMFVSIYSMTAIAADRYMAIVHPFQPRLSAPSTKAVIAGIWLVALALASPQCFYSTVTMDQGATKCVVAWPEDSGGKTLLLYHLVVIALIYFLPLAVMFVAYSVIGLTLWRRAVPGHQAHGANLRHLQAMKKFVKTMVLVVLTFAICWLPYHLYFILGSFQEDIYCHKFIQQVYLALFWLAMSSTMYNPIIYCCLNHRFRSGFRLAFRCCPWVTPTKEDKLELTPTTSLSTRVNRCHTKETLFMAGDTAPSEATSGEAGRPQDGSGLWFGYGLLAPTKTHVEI
Procedure: as §2, §4, §1

NK1R [4] = target: T4, NK1R; test: cell-based
Procedure: as §2, §4, §3, §5

Compound: Cc1cccc(NC(=O)N[C@@H]2N=C(c3ccccc3)c3ccccc3N(CC(=O)c3ccccc3C)C2=O)c1 [YM022, (R)-1-[2,3-dihydro-1-(2′-methylphenacyl)-2-oxo-5-phenyl-1H-1,4-benzodiazepin-3-yl]-3-(3-methylphenyl)urea]
IC50 (CCK2R [1]; agonist 10 µM l-CCK4-Gly-COOH, 4 hours, read-out: IC50 for inhibition of l-CCK4-Gly-COOH induced CCK2R signaling): 10.2 nM
IC50 (CCK2R [1]; agonist 10 µM s-CCK4-Gly-COOH, 4 hours, read-out: IC50 for inhibition of s-CCK4-Gly-COOH induced CCK2R signaling): 0.84 nM
IC50 (CCK2R [1]; agonist tCCK4-Gly (coexpressed MTL), antagonist added 4 hours after transfection for 20 hours, read-out: IC50 for inhibition of tCCK4-Gly induced CCK2R signaling): 0.54 nM

Compound: CCCCCCCCCCCCCCCC(=O)NCCOCCOCCOCCOCCOCCOCCOCCOCCC(=O)NCC(=O)NCC(=O)N[C@@H](Cc1c[nH]c2ccccc12)C(=O)N[C@@H](CCSC)C(=O)N[C@@H](CC(=O)O)C(=O)N[C@@H](Cc1ccccc1)C(=O)NCC(=O)O [l-CCK4-Gly-COOH] ({Palmitoyl-PEG8}-GGWMDFG-OH)
CCK1R mediated signaling (agonist activity, in words) (CCK1R): lacked activity
EC50 (CCK2R [2]): > 1000 nM
CCK2R mediated signaling (agonist activity, in words) (CCK2R [2]): activated

Compound: CCCCCCCCCCCCCCCC(=O)NCCOCCOCCOCCOCCOCCOCCOCCOCCC(=O)NCCCC[C@H](Nc1ccc([N+](=O)[O-])c2nonc12)C(=O)NCC(=O)NCC(=O)N[C@@H](CCCNC(=N)N)C(=O)N1CCC[C@H]1C(=O)N[C@@H](CCCCN)C(=O)N1CCC[C@H]1C(=O)N[C@@H](CCC(N)=O)C(=O)N[C@@H](CCC(N)=O)C(=O)N[C@@H](Cc1ccccc1)C(=O)N[C@@H](Cc1ccccc1)C(=O)NCC(=O)N[C@@H](CC(C)C)C(=O)N[C@@H](CCSC)C(N)=O [l-SubP-NH2]
NK1R mediated signaling (agonist activity, in words) (NK1R [3]): fully active
Potency at NK1R compared with soluble counterpart (in words) (NK1R [3]): more potent than s-SubP-NH2
EC50 (NK1R [4]): 0.4 nM

Results, then the compound that gave them:

EC50 (CCK2R [2]): 2.6 nM
CCK2R mediated signaling (agonist activity, in words) (CCK2R [2]): does not fully activate
Compound: CCCCCCCCCCCCCCCC(=O)NCCOCCOCCOCCOCCOCCOCCOCCOCCC(=O)NCC(=O)NCC(=O)N[C@@H](Cc1c[nH]c2ccccc12)C(=O)N[C@@H](CCSC)C(=O)N[C@@H](CC(=O)O)C(=O)N[C@@H](Cc1ccccc1)C(N)=O [l-CCK4-NH2] ({Palmitoyl-PEG8}-GGWMDF-NH2)

NK3R mediated signaling (agonist activity, in words) (NK3R): activated
NK1R mediated signaling (agonist activity, in words) (NK1R [3]; HEK293, SRE-Luc, relative to 1 µM s-SubP-NH2, MTL coexpressed 24 hours, peptides 4 hours): activated
NK2R mediated signaling (agonist activity, in words) (NK2R): no signaling was observed
EC50 (NK1R [4]): 6.1 nM
Compound: CCCCCCCCCCCCCCCC(=O)NCCOCCOCCOCCOCCOCCOCCOCCOCCC(=O)NCCCC[C@H](NC(C)=O)C(=O)NCC(=O)NCC(=O)N[C@@H](CCCNC(=N)N)C(=O)N1CCC[C@H]1C(=O)N[C@@H](CCCCN)C(=O)N1CCC[C@H]1C(=O)N[C@@H](CCC(N)=O)C(=O)N[C@@H](CCC(N)=O)C(=O)N[C@@H](Cc1ccccc1)C(=O)N[C@@H](Cc1ccccc1)C(=O)NCC(=O)N[C@@H](CC(C)C)C(=O)N[C@@H](CCSC)C(=O)O [l-SubP-COOH]

EC50 (CCK2R [2]): > 1000 nM
Compound: WMDFG [s-CCK4-Gly-COOH]

Reference: publication PMC4229100, “A Two-Step Strategy to Enhance Activity of Low Potency Peptides” (PLoS ONE, 2014)
